Laboratory results taken from US20190133124A1, “BACILLUS AND LIPOCHITOOLIGOSACCHARIDE FOR IMPROVING PLANT GROWTH” (NOVOZYMES BIOAG A/S, priority 2016, published 2019).

How the values were obtained:
[1] = tested on: corn seeds (Monsanto, DKC 63-33); assay: Moist chamber system: corn seedling dry weight after seed treatment with Bacillus amyloliquefaciens and Nod factor; type: in vivo
Experimental: A study was performed to determine the effect of seed treatment of Bacillus amyloliquefaciens, a Nod factor, or a combination of Bacillus amyloliquefaciens and a Nod factor on corn growth. Corn seeds were treated with Bacillus amyloliquefaciens strain SB3281 bacteria alone, an LCO V (C18:1) Nod factor (FIG. 1A) alone, or a combination of the bacterial strain and Nod factor. Seeds treated as above were tested in a system designed to test various parameters of early seed germination. In this system, the seeds were placed on moist germination paper, in petri dishes, in a representative mock moist chamber experiment (for each seed treatment, 3 petri dishes, each with 5 seeds per dish, were used; 10 ml of deionized water was added to the germination paper per dish). The seeds were allowed to grow in the petri dishes at room temperature for approximately 2 weeks. After that time, various parameters of the seedlings were measured. The lengths of roots/shoots were measured in some experiments. In some experiments, the dry weights of the roots/shoots were determined after dissecting roots from shoots, drying the roots/shoots (placed in a coin envelope) in a 70° C. oven for 2 days, and weighing the roots/shoots. The individual biomass per seedling was determined from these measurements in order to find the average biomass per treatment. To obtain the Bacillus amyloliquefaciens bacterium for the study, strain SB3281 (ATCC PTA-7542) was maintained on Standard Methods Agar (“SMA”; Smith River Biologicals; Ferrum, Va., U.S.). Single colonies were selected from SMA and used to inoculate 5 ml of LB medium. Twenty-four hour old LB cultures were used to inoculate a 250 ml flask containing 100 ml of Si medium (per liter contained 9.4 g of yeast extract, 9.4 g of corn syrup solids, 0.5 g of magnesium chloride hexahydrate, 0.2 g of manganese (II) chloride tetrahydrate, 0.2 g of calcium chloride dehydrate, and 0.27 g of sodium hydroxide, pH 7.0). The flask was incubated at 30° C. on a shaker at 165 rpm. Samples of the bacteria were taken from the culture at 7 days (T7). The number of bacteria in the cultures at the various time points was determined by plating serial dilutions from the cultures on SMA plates and the colonies that formed were counted and multiplied by the dilution factor. The number of spores in the cultures were determined by heating aliquots from the cultures at 80° C. in a water bath for 10 minutes to kill vegetative cells. Serial dilutions were plated as above and colony counts multiplied by the dilution factor. Generally, the cultures contained 10^9 bacteria or spores per ml. Corn seeds were treated by applying a total of 500 μl of treatment substances (e.g., bacteria, LCO, etc.) to 50 g of corn seeds (Monsanto, DKC 63-33). The seeds were allowed to dry at room temperature in bags for 3-4 hours before used in the moist chamber experiments. For treatment of seeds with a single substance (e.g., bacteria alone, LCO alone), 500 μl of the bacterial culture was used, or 500 μl of a LCO solution that contained 6 μl of a 10^−8 M LCO stock solution in 100 ml of buffer was used. For treatment of seeds with two substances (e.g., bacteria and an LCO), 250 μl of the bacterial culture and 250 μl of the 6×10^−13 M LCO stock solution was used. Negative control corn seeds were treated with 500 μl of water. […]

[2] = tested on: corn seeds (Monsanto, DKC 63-33); assay: Metro-Mix 830 system (growth chamber): corn seedling dry weight after seed treatment with Bacillus amyloliquefaciens and Myc factor; type: in vivo
Experimental: A study was performed to determine the effect of Bacillus amyloliquefaciens, LCOs, or combinations of Bacillus amyloliquefaciens and LCOs on corn growth. Corn seeds were treated with Bacillus amyloliquefaciens strain SB3281 bacteria alone, or in combination with an LCO IV (C16:0, S) Myc factor (FIG. 1B). In this study, corn seeds treated with Bacillus amyloliquefaciens alone or Myc factor alone were compared to non-treated control corn seeds. In addition, corn seeds treated with Bacillus amyloliquefaciens and Myc factor were included in the study. Seeds treated as above were tested in a system designed to test various parameters of early emergence of treated seeds. In this system, the treated seeds were planted in Metro-Mix® 830 (Sun Gro Horticulture; […], Mass., U.S.) and grown in a growth chamber (25° C., 60% relative humidity, 18/6 hour light/dark cycle). Germination trays (12 rows of 6 wells) were filled with moist Metro-Mix® 830. Treated seeds were sown into the wells (30 wells per seed treatment) and grown in the growth chamber for 8 days. The seedlings were harvested, and dry weights of roots/shoots from the seedlings were obtained. To measure the dry weight, the soil was removed from the roots, and dry weights of the roots/shoots and biomass per seedling were determined as described in Example 1. To obtain the Bacillus amyloliquefaciens bacterium for the study, strain SB3281 (ATCC PTA-7542) was grown as described in Example 1. Samples of the bacteria were taken from the culture at 24 hrs (T1). The number of bacteria in the cultures at the various time points was determined by plating serial dilutions from the cultures on SMA plates and the colonies that formed were counted and multiplied by the dilution factor. The number of spores in the cultures were determined by heating aliquots from the cultures at 80° C. in a water bath for 10 minutes to kill vegetative cells. Serial dilutions were plated as above and colony counts multiplied by the dilution factor. Corn seeds were treated by applying a total of 500 μl of treatment substances (e.g., bacteria, LCO, etc.) to 50 g of corn seeds (Monsanto, DKC 63-33). The seeds were allowed to dry at room temperature in bags for 3-4 hours before used in the Metro-Mix® experiments. Control seeds were treated with 500 μl of water. Another group of seeds was treated with 500 μl of a Bacillus amyloliquefaciens culture. A third group of seeds was treated with 500 μl of a 10^-9 M solution of Myc factor. A fourth group of seeds was treated with 250 μl of the Bacillus amyloliquefaciens culture and 250 μl of a 10^-9 M solution of Myc factor.

LCO V (C18:1) [Nod factor]
Average individual seedling dry weight ([1]; approximately 2 weeks, T7 culture, single: 500 μl culture or 500 μl 6×10^−13 M LCO, combination: 250 μl + 250 μl, per 50 g seeds): 0.2244 g | Increase in seedling dry weight over control ([1]; difference to control 0.2190 g): 0.0054 g | Increase in seedling dry weight over control (about %) ([1]; rounded): about 2.5% | Effect on corn plant growth (in words) ([1]; seedling dry weight): increased corn plant growth | Percent increase seedling dry weight over control ([1]; vs water-treated control): 2.47%

CCCCCCCCCCCCCCCC(=O)N[C@H]1[C@H](O[C@H]2[C@H](O)[C@@H](NC(C)=O)[C@H](O[C@H]3[C@H](O)[C@@H](NC(C)=O)[C@H](O[C@H]4[C@H](O)[C@@H](NC(C)=O)C(O)O[C@@H]4COS(=O)(=O)O)O[C@@H]3CO)O[C@@H]2CO)O[C@H](CO)[C@@H](O)[C@@H]1O (stereo partly shown) [Myc factor, LCO IV (C16:0, S)]
Average individual seedling dry weight ([2]; Metro-Mix 830, growth chamber 25° C., 8 days, culture grown 1 day (T1), single: 500 μl culture or 500 μl 10^−9 M Myc factor, combination: 250 μl + 250 μl, per 50 g seeds): 0.1921 g | Decrease in seedling dry weight versus control ([2]; difference to control 0.1985 g, Metro-Mix 830): 0.0064 g | Change in seedling dry weight over control (about %) ([2]; rounded, Metro-Mix 830): about −3.2% | Effect on corn plant growth (in words) ([2]; seedling dry weight, Metro-Mix 830): appeared to have a negative effect on corn plant growth | Percent increase seedling dry weight over control ([2]; vs water-treated control, Metro-Mix 830, 8 days): −3.22%
